The record followed here is patent US10519114B2, “Peptidomimetics and methods of using the same” (The Regents of the University of Michigan, priority 2016, dated 2019).

The target of one test is T1, rat μ (C6-MOR) opioid receptor (Rattus norvegicus, UniProt P33535).
T1 construct: expressed in transfected cells
T1 sequence (P33535 whole entry): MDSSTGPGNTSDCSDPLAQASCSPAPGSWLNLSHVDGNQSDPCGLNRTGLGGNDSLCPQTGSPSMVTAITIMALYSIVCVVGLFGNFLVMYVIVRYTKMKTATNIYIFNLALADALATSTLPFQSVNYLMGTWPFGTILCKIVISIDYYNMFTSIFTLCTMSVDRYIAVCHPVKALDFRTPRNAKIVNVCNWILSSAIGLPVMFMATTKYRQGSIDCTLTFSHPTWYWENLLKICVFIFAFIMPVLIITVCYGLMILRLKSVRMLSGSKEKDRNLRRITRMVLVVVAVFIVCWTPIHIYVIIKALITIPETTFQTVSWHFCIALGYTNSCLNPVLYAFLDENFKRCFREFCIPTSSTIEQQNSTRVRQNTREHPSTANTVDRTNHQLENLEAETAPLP
The test can be described thus: Radioligand binding assay, [3H]diprenorphine displacement, MOR. The note with it: displacement of 0.2 nM [3H]diprenorphine, C6-MOR membranes; mean ± standard error. On the procedure:
(§1) In Vitro Pharmacology-Cell Lines and Membrane Preparations. All tissue culture reagents were purchased from Gibco Life Sciences (Grand Island, N.Y., U.S.). C6-rat glioma cells stably transfected with a rat μ (C6-MOR) or rat δ (C6-DOR) opioid receptor20 and Chinese hamster ovary (CHO) cells stably expressing a human K (CHO-KOR) opioid receptor21 were used for all in vitro assays. Cells were grown to confluence at 37° C. in 5% CO2 in Dulbecco's modified Eagle medium containing 10% fetal bovine serum and 5% penicillin/streptomycin. Membranes were prepared by washing confluent cells three times with ice cold phosphate buffered saline (0.9% NaCl, 0.61 mM Na2HPO4, 0.38 mM KH2PO4, pH 7.4). Cells were detached from the plates by incubation in warm harvesting buffer (20 mM HEPES, 150 mM NaCl, 0.68 mM EDTA, pH 7.4) and pelleted by centrifugation at 200 g for 3 min. The cell pellet was suspended in ice-cold 50 mM Tris-HCl buffer, pH 7.4, and homogenized with a Tissue Tearor (Biospec Products, Inc., Bartlesville, Okla., U.S.) for 20 s at setting 4. The homogenate was centrifuged at 20 000 g for 20 min at 4° C., and the pellet was rehomogenized in 50 mM Tris-HCl with a Tissue Tearor for 10 s at setting 2, followed by recentrifugation. The final pellet was resuspended in 50 mM Tris-HCl and frozen in aliquots at […]. Protein concentration was determined via Bradford assay using bovine serum albumin as the standard.
(§2) Radioligand Binding Assays. Radioactive compounds were purchased from Perkin-Elmer (Waltham, Mass., U.S.). Opioid ligand binding assays were performed using competitive displacement of 0.2 nM [3H]diprenorphine (250 μCi, 1.85 TBq/mmol) by the test compound from membrane preparations containing opioid receptors. The assay mixture, containing membrane suspension (20 μg protein/tube) in 50 mM Tris-HCl buffer (pH 7.4), [3H]diprenorphine, and various concentrations of test peptide, was incubated at room temperature for 1 h to allow binding to reach equilibrium. The samples were rapidly filtered through Whatman GF/C filters using a Brandel harvester (Brandel, Gaithersburg, Md., U.S.) and washed three times with 50 mM Tris-HCl buffer. The radioactivity retained on dried filters was determined by liquid scintillation counting after saturation with EcoLume liquid scintillation cocktail in a Wallac 1450 MicroBeta (Perkin-Elmer, Waltham, Mass., U.S.). Nonspecific binding was determined using 10 μM naloxone. Inhibitory constant (Ki) values were calculated using nonlinear regression analysis to fit a logistic equation to the competition data using GraphPad Prism, version 5.01, for Windows (GraphPad Software Inc., La Jolla, Calif.). The results presented are the mean±standard error from at least three separate assays performed in duplicate.
Regarding `Cc1cc(O)cc(C)c1C[C@H](N)C(=O)N[C@@H]1CCNc2ccc(Cc3ccc(F)cc3)cc21` [Compound 1009], the Ki is 0.07 nM.
Take `CC(=O)N1CC[C@@H](NC(=O)[C@@H](N)Cc2c(C)cc(O)cc2C)c2cc(Oc3ccccc3)ccc21` [Compound 1019]: the Ki was 0.1 ± 0.02 nM.
The same measure, in the same setting: the value for `Cc1cc(O)cc(C)c1C[C@H](N)C(=O)N[C@@H]1CCNc2ccc(S(=O)(=O)c3ccccc3)cc21` [Compound 1052] was 3.01 ± 1.87 nM.

The target in a further test is T2, rat δ (C6-DOR) opioid receptor (Rattus norvegicus, UniProt P33533).
T2 construct: expressed in transfected cells
T2 sequence (P33533 whole entry): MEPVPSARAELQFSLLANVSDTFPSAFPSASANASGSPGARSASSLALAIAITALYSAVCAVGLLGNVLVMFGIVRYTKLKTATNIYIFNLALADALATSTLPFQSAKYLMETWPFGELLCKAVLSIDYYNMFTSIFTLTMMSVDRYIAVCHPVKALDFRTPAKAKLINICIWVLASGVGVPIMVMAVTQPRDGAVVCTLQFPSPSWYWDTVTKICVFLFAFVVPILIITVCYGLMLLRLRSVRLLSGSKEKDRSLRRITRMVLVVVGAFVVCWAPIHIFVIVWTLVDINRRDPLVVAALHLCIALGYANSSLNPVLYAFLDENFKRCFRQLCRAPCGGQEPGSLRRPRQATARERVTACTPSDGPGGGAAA
The test can be described thus: Radioligand binding assay, [3H]diprenorphine displacement, DOR. The note with it: displacement of 0.2 nM [3H]diprenorphine, C6-DOR membranes; mean ± standard error. On the procedure:
as §1, §2
The compound `Cc1cc(O)cc(C)c1C[C@H](N)C(=O)N[C@@H]1CCNc2ccc(Cc3ccc(F)cc3)cc21` [Compound 1009] gave a Ki of 4 nM.
Compound `CC(=O)N1CC[C@@H](NC(=O)[C@@H](N)Cc2c(C)cc(O)cc2C)c2cc(Oc3ccccc3)ccc21` [Compound 1019] came in with a Ki of 4.21 ± 1.26 nM.
The same measure, in the same setting: under `Cc1cc(O)cc(C)c1C[C@H](N)C(=O)N[C@@H]1CCNc2ccc(S(=O)(=O)c3ccccc3)cc21` [Compound 1052] stands 2.92 ± 0.41 nM.

The next test deals with T3, human κ (CHO-KOR) opioid receptor (Homo sapiens, UniProt P41145).
T3 construct: expressed in transfected cells
T3 sequence (P41145 whole entry): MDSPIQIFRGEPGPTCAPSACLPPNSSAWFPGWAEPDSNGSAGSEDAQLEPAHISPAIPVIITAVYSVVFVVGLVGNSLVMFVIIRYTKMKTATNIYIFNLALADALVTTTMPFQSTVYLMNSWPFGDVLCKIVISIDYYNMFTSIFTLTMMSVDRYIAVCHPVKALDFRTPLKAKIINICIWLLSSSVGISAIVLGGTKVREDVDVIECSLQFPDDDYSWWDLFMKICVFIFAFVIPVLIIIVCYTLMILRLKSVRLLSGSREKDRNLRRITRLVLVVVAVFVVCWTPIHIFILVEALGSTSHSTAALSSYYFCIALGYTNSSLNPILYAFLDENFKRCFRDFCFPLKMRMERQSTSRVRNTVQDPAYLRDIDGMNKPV
Description: Radioligand binding assay, [3H]diprenorphine displacement, KOR. The note with it: displacement of 0.2 nM [3H]diprenorphine, CHO-KOR membranes; mean ± standard error. The protocol:
as §1, §2
The compound `Cc1cc(O)cc(C)c1C[C@H](N)C(=O)N[C@@H]1CCNc2ccc(Cc3ccc(F)cc3)cc21` [Compound 1009] yielded an inhibitory constant (Ki) of 6.6 nM.
The same measure, in the same setting: under `CC(=O)N1CC[C@@H](NC(=O)[C@@H](N)Cc2c(C)cc(O)cc2C)c2cc(Oc3ccccc3)ccc21` [Compound 1019] stands 32.98 ± 0.1 nM.
The same measure, in the same setting: under `Cc1cc(O)cc(C)c1C[C@H](N)C(=O)N[C@@H]1CCNc2ccc(S(=O)(=O)c3ccccc3)cc21` [Compound 1052] stands 26 ± 7.12 nM.

For another test, the target named is T1, rat μ (C6-MOR) opioid receptor. Description: Stimulation of [35S]GTPγS binding, MOR. The format is biochemical. The note with it: [35S]GTPγS binding, C6-MOR membranes; mean ± standard error. The protocol: as §1
(§3) Stimulation of [^35S]GTPyS Binding. Agonist stimulation of [35S]guanosine 5′-O-[γ-thio]triphosphate ([^35S]GTPγS, 1250 Ci, 46.2 TBq/mmol) binding was measured as described previously Briefly, membranes (10-20 μg of protein/tube) were incubated 1 h at room temperature in GTPyS buffer (50 mM Tris-HCl, 100 mM NaCl, 5 mM MgCl2, pH 7.4) containing 0.1 nM [^35S]GTPγS, 30 μM guanosine diphosphate (GDP), and varying concentrations of test peptides. Peptide stimulation of [^35S]GTPyS was compared with 10 μM standard compounds [D-Ala^2,N-MePhe^4,Gly-ol]encephalin (DAMGO) at MOR, D-Pen^2,5-enkephalin (DPDPE) at DOR, or […] at KOR. The reaction was terminated by rapidly filtering through GF/C filters and washing 10 times with GTPyS buffer, and retained radioactivity was measured as described above. The results presented are the mean±standard error from at least three separate assays performed in duplicate; maximal stimulation was determined using nonlinear regression analysis with GraphPad Prism (GraphPad Software Inc., La Jolla, Calif.).
With `CC(=O)N1CC[C@@H](NC(=O)[C@@H](N)Cc2c(C)cc(O)cc2C)c2cc(Oc3ccccc3)ccc21` [Compound 1019], the half-maximal effective concentration (EC50) was 6.49 ± 3.21 nM.
Same read-out and setting: under `Cc1cc(O)cc(C)c1C[C@H](N)C(=O)N[C@@H]1CCNc2ccc(S(=O)(=O)c3ccccc3)cc21` [Compound 1052] stands 12.9 ± 1.35 nM.

Staying with this test, now noted: [35S]GTPγS maximal stimulation compared with 10 μM standard DAMGO.
`Cc1cc(O)cc(C)c1C[C@H](N)C(=O)N[C@@H]1CCNc2ccc(Cc3ccc(F)cc3)cc21` [Compound 1009]: the Emax came to 69%.
Still for that read-out and setting: under `CC(=O)N1CC[C@@H](NC(=O)[C@@H](N)Cc2c(C)cc(O)cc2C)c2cc(Oc3ccccc3)ccc21` [Compound 1019] stands 76.6 ± 2.66%; under `Cc1cc(O)cc(C)c1C[C@H](N)C(=O)N[C@@H]1CCNc2ccc(S(=O)(=O)c3ccccc3)cc21` [Compound 1052], 68.9 ± 10.3%.

The target in the next test is T2, rat δ (C6-DOR) opioid receptor. Description: Stimulation of [35S]GTPγS binding, DOR. Type of test: biochemical. The note with it: [35S]GTPγS binding, C6-DOR membranes; mean ± standard error. On the procedure: as §1, §3
On to `CC(=O)N1CC[C@@H](NC(=O)[C@@H](N)Cc2c(C)cc(O)cc2C)c2cc(Oc3ccccc3)ccc21` [Compound 1019], for which a half-maximal response (EC50) required 222 nM.
Consider `Cc1cc(O)cc(C)c1C[C@H](N)C(=O)N[C@@H]1CCNc2ccc(S(=O)(=O)c3ccccc3)cc21` [Compound 1052], for which the “EC50 (nm) DOR” value is given as “dns”.

Staying with this test, now noted: [35S]GTPγS maximal stimulation compared with 10 μM standard DPDPE.
In the case of `Cc1cc(O)cc(C)c1C[C@H](N)C(=O)N[C@@H]1CCNc2ccc(Cc3ccc(F)cc3)cc21` [Compound 1009], the maximal response (Emax) came out at 16%.
The same measure, in the same setting: the value for `CC(=O)N1CC[C@@H](NC(=O)[C@@H](N)Cc2c(C)cc(O)cc2C)c2cc(Oc3ccccc3)ccc21` [Compound 1019] was 15.8%.
For `Cc1cc(O)cc(C)c1C[C@H](N)C(=O)N[C@@H]1CCNc2ccc(S(=O)(=O)c3ccccc3)cc21` [Compound 1052], the “% stimulation DOR” value was “dns”.

Another test concerns the target T3, human κ (CHO-KOR) opioid receptor. The test can be described thus: Stimulation of [35S]GTPγS binding, KOR. The note with it: [35S]GTPγS binding, CHO-KOR membranes; mean ± standard error. Type of test: biochemical. On the procedure:
as §1, §3
The compound `CC(=O)N1CC[C@@H](NC(=O)[C@@H](N)Cc2c(C)cc(O)cc2C)c2cc(Oc3ccccc3)ccc21` [Compound 1019] came in with an EC50 of 1080 nM.
Regarding `Cc1cc(O)cc(C)c1C[C@H](N)C(=O)N[C@@H]1CCNc2ccc(S(=O)(=O)c3ccccc3)cc21` [Compound 1052], a half-maximal effect (EC50) was put at 1310 nM.

The same test, now with this note: [35S]GTPγS maximal stimulation compared with 10 μM standard U-69,593.
Take `Cc1cc(O)cc(C)c1C[C@H](N)C(=O)N[C@@H]1CCNc2ccc(Cc3ccc(F)cc3)cc21` [Compound 1009]: the Emax is 9%.
Same read-out and setting: the value for `CC(=O)N1CC[C@@H](NC(=O)[C@@H](N)Cc2c(C)cc(O)cc2C)c2cc(Oc3ccccc3)ccc21` [Compound 1019] was 37.3%; that for `Cc1cc(O)cc(C)c1C[C@H](N)C(=O)N[C@@H]1CCNc2ccc(S(=O)(=O)c3ccccc3)cc21` [Compound 1052] was 38.5%.
